The values that follow come from patent publication US9198923B2, “Phosphate management with small molecules” (OPKO IRELAND GLOBAL HOLDINGS, LTD., priority 2009, dated 2015).

Data set [1] concerns phosphate uptake in Caco-2 human intestinal epithelial cells. Nature of the data set: Dosage effect on phosphate uptake inhibition in Caco-2 cells. Type of data set: cell-based. The settings on record: concentrations from 1 to 100 μM, FIG. 2. As for the experimental part:
Caco-2 cells were cultured in DMEM medium containing 20% Fetal Bovine Serum. Medium from the sub-confluent monolayer of Caco-2 cells was removed. The resulting cells were washed with either a sodium free buffer (137 mM choline chloride, 5.4 mM KCl, 2.8 mM CaCl2, 1.2 mM MgSO4, and 14 mM Tris-HCl at pH 7.4), or with a buffer that contained sodium (137 mM sodium chloride, 5.4 mM KCl, 2.8 mM CaCl2, 1.2 mM MgSO4, and 14 mM Tris-HCl at pH 7.4). After the wash, sodium or sodium free buffer comprising 1 μM of radiolabeled phosphate (K2H^32PO4,1 μCi/mL) and 100 μM of a small molecule having a phosphate group that was selected from the group containing Compounds 001-029 was added to the cells and they were incubated for 20 min at 37° C. Phosphate uptake was terminated by removing the uptake media and washing the cells with an ice-cold solution of 14 mM Tris-HCl, pH 7.4 that contained 137 mM of either choline chloride or sodium chloride. The monolayers of the cells were solubilized by the addition of a 1% solution of Triton X-100 to extract the radiolabeled phosphate. Aliquots of the radiolabeled phosphate were added to scintillation fluid and the radioactivity was determined by liquid scintillation counting. The difference between the assays using the two solutions with or without sodium represents the sodium dependent transport of phosphate.
The procedure of example 1 was repeated using C-002, C-004, C-012, and C-028 at concentrations from 1 to 100 μM. The results were recorded as the percent of phosphate uptake inhibition versus concentration of the small molecule having a phosphate group.

The test system of data set [2] is Caco-2 human epithelial cells. Nature of the data set: Caco-2 cell viability by ALAMAR BLUE stain reduction. The settings on record: 100 μM compound, Caco-2 cells; FIG. 3; taken as nontoxic. The class given is cell-based. As for the experimental part:
Staining was performed with ALAMAR BLUE stain in the presence of 100 μM C-002, C-004, C-012, and C-028 cells to exclude compound toxicity in the phosphorus transport assay. Caco-2 cells were plated into a 96-well plate in concentrations which gave about 16,000 cells/well on the day of the test (e.g., 8000 cells/well for a 1 day growth, 4000 cells/well for a 2 day growth, 2000 cell/well for a 3 day growth). On the day of the test, old media was replaced by 80 μL of fresh media per well with either a 100 μM final concentration of the small molecule having a phosphate group in DMSO, or with 1% of DMSO in the control wells. Testing was performed in duplicate. ALAMAR BLUE stain (BioSource International, Inc., Cat#DAL1100) was added at a final concentration of 10% into each well according to manufacturer instructions. The cells were then incubated at 37° C. for another 18 or 24 hours, and the reduction of ALAMAR BLUE stain by vital cells was measured spectrophotometrically at 570 nm and 600 nm. The results were calculated as the percent of reduction using the formula in the manufacturer's manual (TREK Diagnostic Systems, PI-DIAL 1025/1100 Rev 1.0).

For data set [3], the system named is Caco-2 human epithelial cells. Nature of the data set: Caco-2 cell viability by trypan blue exclusion. Conditions: 100 μM compound, one hour of incubation, sodium or sodium free buffer; FIG. 4. Type of data set: cell-based. On the procedure:
Trypan blue exclusion was used to determine the effect of C-002, 004, 012, and 028 on cell viability. The cells were plated in the same way as the ALAMAR BLUE stain test (see above). On the day of the test, media was removed, cells were washed with PBS and incubated with 100 μM (final concentration) of C-002, C-004, C-012 and C-028 in either a sodium free buffer (137 mM choline chloride, 5.4 mM KCl, 2.8 mM CaCl2, 1.2 mM MgSO4, and 14 mM Tris-HCl at pH 7.4), or with a buffer that contained sodium (137 mM sodium chloride, 5.4 mM KCl, 2.8 mM CaCl2, 1.2 mM MgSO4, and 14 mM Tris-HCl at pH 7.4). Testing was performed in duplicate. After 1 hour of incubation the cells were detached with trypsin/EDTA, transferred to an Eppendorf tube, and their viability was counted using 0.4% trypan blue stain (Invitrogen, Cat.#15250-061) in a 1:4 dilution with confocal microscopy.

The subject of the next data set is Male Sprague Dawley rats. Nature of the data set: Maximum tolerated dose (MTD) in male Sprague Dawley rats. The class given is in vivo, rat. The settings on record: oral, daily, 0.5, 5 and 10 mg per kg for twelve days; for effect on weight gain: FIG. 5. As for the experimental part:
Male Sprague Dawley rats were given C-002, C-004, C-012, C-021, C-022, C-023, and C-028 orally and daily at doses of 0.5, 5 and 10 mg per kg for twelve days. The mortality and animal weight data were recorded.

With `C=C(c1ccccc1)P(=O)(O)O` [C-004], the “percent inhibition of phosphate uptake versus concentration” value (shortened to “percent inhibition”) in data set [1] is “increased with the concentration”. In addition, in data set [2], the “percent difference in ALAMAR BLUE stain reduction after 18 and 24 hours” value is on record as “virtually unchanged”. In addition, the “viability of Caco-2 cells by trypan blue exclusion” value (“viability of Caco-2 cells” below) in data set [3] is given as “no significant effect”. Also, in the data set with Male Sprague Dawley rats, the mortality result was “No death” and the “effect on weight gain” value is reported as “no significant effect”.
With `O=P(O)(O)c1ccccc1OCCCOc1ccccc1P(=O)(O)O` [C-022], in the data set on Male Sprague Dawley rats, the mortality result is reported as “No death” and the “effect on weight gain” value was “no significant effect”.
In the case of `O=P(O)(OC(c1ccccc1)C(F)(F)C(F)(F)C(F)(F)F)c1ccccc1` (centres unmarked) [C-028], the “percent inhibition” value in data set [1] is “increased with the concentration”. Moreover, the “percent difference in ALAMAR BLUE stain reduction after 18 and 24 hours” value in data set [2] is reported as “virtually unchanged”. Besides, the “viability of Caco-2 cells” value in data set [3] is “no significant effect”. In the data set on Male Sprague Dawley rats, the mortality entry is recorded as “No death” and the “effect on weight gain” value is on record as “no significant effect”.
On to `Cc1csc(Nc2ccc([N+](=O)[O-])cc2)[n+]1CCC(O)(P(=O)(O)O)P(=O)(O)O` [C-012], for which the “percent inhibition” value in data set [1] is given as “increased with the concentration”. In addition, the “percent difference in ALAMAR BLUE stain reduction after 18 and 24 hours” value in data set [2] is “virtually unchanged”. In addition, the “viability of Caco-2 cells” value in data set [3] was “no significant effect”. Moreover, in the data set with Male Sprague Dawley rats, the mortality entry is “No death” and the “effect on weight gain” value is “no significant effect”.
As for `O=P(O)(O)/C=C/c1ccccc1` [C-023], in the data set on Male Sprague Dawley rats, the mortality result is on record as “No death” and the “effect on weight gain” value is listed as “no significant effect”.
The like results for `O=P(O)(O)c1ccccc1OCCCl` [C-021] were, in that order, “No death” and “no significant effect”.
Take `O=P(O)(O)c1c(Cl)c(Cl)nc(Cl)c1Cl` [C-002]: the “percent inhibition” value in data set [1] is recorded as “increased with the concentration”. Also, the “percent difference in ALAMAR BLUE stain reduction after 18 and 24 hours” value in data set [2] is given as “virtually unchanged”. For the same compound, in data set [3], the “viability of Caco-2 cells” value is recorded as “no significant effect”. For the same compound, in the data set with Male Sprague Dawley rats, the mortality result was “No death” and the “effect on weight gain” value is “no significant effect”.
